Results on 41 compounds are retold here after US20250171459A1, “2-METHYL-4',5'-DIHYDROSPIRO[PIPERIDINE-4,7'-THIENO[2,3-C]PYRAN] DERIVATIVES AS INHIBITORS OF APOL1 AND METHODS OF USING SAME” (Vertex Pharmaceuticals Incorporated, priority 2022, published 2025).

The experiment concerns the target T1, APOL1 (Homo sapiens, UniProt O14791).
T1 sequence (O14791 1-398 S342G/I384M): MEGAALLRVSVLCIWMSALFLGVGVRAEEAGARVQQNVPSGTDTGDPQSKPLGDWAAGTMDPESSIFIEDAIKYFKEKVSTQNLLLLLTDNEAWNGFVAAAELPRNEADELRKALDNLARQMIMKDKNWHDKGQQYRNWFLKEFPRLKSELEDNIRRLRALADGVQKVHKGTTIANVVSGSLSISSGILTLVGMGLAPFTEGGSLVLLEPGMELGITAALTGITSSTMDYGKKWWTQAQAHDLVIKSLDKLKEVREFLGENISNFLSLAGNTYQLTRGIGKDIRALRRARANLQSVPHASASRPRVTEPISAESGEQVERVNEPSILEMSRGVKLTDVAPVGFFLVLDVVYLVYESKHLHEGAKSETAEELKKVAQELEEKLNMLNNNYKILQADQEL
Put plainly: MultiTox-Fluor Multiplex Cytotoxicity Assay in tet-inducible APOL1 T-REx-HEK293 cells (cell rescue, ratio of dead to live cells). Conditions: tet-inducible transgenic APOL1 T-REx-HEK293 cell lines, 50 ng/mL tet, 24 hours; read-out: IP50 (i.e., IC50 for cell proliferation). The experiment is classed as cell-based. In outline:
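T-REx-HEK293 cells with tet-inducible APOL1 were treated with compound (10 μM top, 10-point 3-fold dilution, duplicate) plus 50 ng/mL tetracycline for 24 h at 37° C, in DMEM with 2% tet-free FBS. MultiTox-Fluor protease signals gave a dead/live ratio, normalized to no tet (100% viability) and tet alone (0%).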

Where only a bound is given, the exact number is not on record here.

Take `CCc1cc2c(s1)CCO[C@@]21CCN(Cc2ccon2)[C@@H](C)C1` [Compound 279, (2′S,4R)-2-ethyl-1′-(isoxazol-3-ylmethyl)-2′-methyl-spiro[6,7-dihydrothieno[3,2-c]pyran-4,4′-piperidine]]: the IC50 is below 100 nM.

On to `CCc1cc2c(s1)CCO[C@@]21CCN(CC(O)CC#N)[C@@H](C)C1` (some centres unmarked) [Compound 280], for which the IC50 is 100 to 500 nM.

Consider `CCc1cc2c(s1)CCO[C@@]21CCN(CC(O)CO)[C@@H](C)C1` (some centres unmarked) [Compound 281], for which the IC50 fell in the range of 100 to 500 nM.

For `CCc1cc2c(s1)CCO[C@@]21CCN(CC(O)CO)[C@@H](C)C1` (some centres unmarked) [Compound 282], the IC50 was in the range of 500 to 1000 nM.

On to `CCc1cc2c(s1)CCO[C@@]21CCN(CC(=O)OC)[C@@H](C)C1` [Compound 283], for which the IC50 is 500 to 1000 nM.

For the compound `CCc1cc2c(s1)CCO[C@@]21CCN(Cc2ncco2)[C@@H](C)C1` [Compound 284], the IC50 fell in the range of 500 to 1000 nM.

In the case of `CCc1cc2c(s1)CCO[C@@]21CCN(CCn2cccn2)[C@@H](C)C1` [Compound 286], the IC50 was 500 to 1000 nM.

`CCc1cc2c(s1)CCO[C@@]21CCN(Cc2cc(C)on2)[C@@H](C)C1` [Compound 287]: the IC50 was below 100 nM.

Take `CCc1cc2c(s1)CCO[C@@]21CCN(Cc2c[nH]c(C)n2)[C@@H](C)C1` [Compound 288]: the IC50 was below 100 nM.

As to `CCc1cc2c(s1)CCO[C@@]21CCN(CC)[C@@H](C)C1` [Compound 289], the IC50 was in the range of 100 to 500 nM.

Consider `CCc1cc2c(s1)CCO[C@@]21CCN(CC(=O)C(C)(C)C)[C@@H](C)C1` [Compound 290], for which the IC50 was in the range of 500 to 1000 nM.

In the case of `CCc1cc2c(s1)CCO[C@@]21CCN(Cc2nc3ccccc3[nH]2)[C@@H](C)C1` [Compound 291], the IC50 is 100 to 500 nM.

For `CCc1cc2c(s1)CCO[C@@]21CCN(CC#N)[C@@H](C)C1` [Compound 292], the IC50 lay within 100 to 500 nM.

As for `CCc1cc2c(s1)CCO[C@@]21CCN(Cc2ncon2)[C@@H](C)C1` [Compound 293], the IC50 was 500 to 1000 nM.

`CCc1cc2c(s1)CCO[C@@]21CCN(CC(F)F)[C@@H](C)C1` [Compound 294]: the IC50 lay within 500 to 1000 nM.

For the compound `CCc1cc2c(s1)CCO[C@@]21CCN([C@@H]2CC[C@H](NC(=O)OC(C)(C)C)C2)[C@@H](C)C1` [Compound 295], the IC50 was 100 to 500 nM.

Turning to `CCc1cc2c(s1)CCO[C@@]21CCN([C@H]2C[C@H](NC(=O)OC(C)(C)C)C2)[C@@H](C)C1` [Compound 297], the IC50 lay within 500 to 1000 nM.

For `CCc1cc2c(s1)CCO[C@@]21CCN([C@H]2C[C@@H](NC(=O)OC(C)(C)C)C2)[C@@H](C)C1` [Compound 298], the IC50 is 500 to 1000 nM.

With `CCc1cc2c(s1)CCO[C@@]21CCN(C[C@H]2C[C@@H](N)C2)[C@@H](C)C1` [Compound 299, 3-[[(2′S,4R)-2-ethyl-2′-methyl-spiro[6,7-dihydrothieno[3,2-c]pyran-4,4′-piperidine]-1′-yl]methyl]cyclobutanamine], the IC50 is 100 to 500 nM.

As for `CCc1cc2c(s1)CCO[C@@]21CCN(C[C@H]2C[C@@H](NC(=O)C3CC(F)(F)C3)C2)[C@@H](C)C1` [Compound 300, N-[3-[[(2′S,4R)-2-ethyl-2′-methyl-spiro[6,7-dihydrothieno[3,2-c]pyran-4,4′-piperidine]-1′-yl]methyl]cyclobutyl]-3,3-difluoro-cyclobutanecarboxamide], the IC50 was below 100 nM.

`CCc1cc2c(s1)CCO[C@@]21CCN(C[C@H]2C[C@@H](NC(=O)COCC(F)(F)F)C2)[C@@H](C)C1` [Compound 301, N-[3-[[(2′S,4R)-2-ethyl-2′-methyl-spiro[6,7-dihydrothieno[3,2-c]pyran-4,4′-piperidine]-1′-yl]methyl]cyclobutyl]-2-(2,2,2-trifluoroethoxy)acetamide]: the IC50 was 100 to 500 nM.

As for `CCc1cc2c(s1)CCO[C@@]21CCN(C[C@H]2C[C@@H](NC(=O)OC)C2)[C@@H](C)C1` [Compound 302, methyl N-[3-[[(2′S,4R)-2-ethyl-2′-methyl-spiro[6,7-dihydrothieno[3,2-c]pyran-4,4′-piperidine]-1′-yl]methyl]cyclobutyl]carbamate], the IC50 was below 100 nM.

Regarding `CCc1cc2c(s1)CCO[C@@]21CCN(C[C@H]2C[C@@H](NC(=O)CC3(O)CCCCC3)C2)[C@@H](C)C1` [Compound 303], the IC50 was below 100 nM.

For `CCc1cc2c(s1)CCO[C@@]21CCN(C[C@H]2C[C@@H](NC(=O)c3cc(C)no3)C2)[C@@H](C)C1` [Compound 304], the IC50 was below 100 nM.

For the compound `CCc1cc2c(s1)CCO[C@@]21CCN(C[C@H]2C[C@@H](NC(=O)[C@H]3C[C@@H]3C(F)F)C2)[C@@H](C)C1` [Compound 305], the IC50 is below 100 nM.

In the case of `CCCCC(O)C(=O)N[C@H]1C[C@@H](CN2CC[C@]3(C[C@@H]2C)OCCc2sc(CC)cc23)C1` (some centres unmarked) [Compound 306], the IC50 was below 100 nM.

As to `CCc1cc2c(s1)CCO[C@@]21CCN(C[C@H]2C[C@@H](NC(=O)c3ccc4cn[nH]c4c3)C2)[C@@H](C)C1` [Compound 307], the IC50 is below 100 nM.

`CCc1cc2c(s1)CCO[C@@]21CCN(C[C@H]2C[C@@H](NC(=O)c3oncc3C)C2)[C@@H](C)C1` [Compound 308]: the IC50 was below 100 nM.

Turning to `CCc1cc2c(s1)CCO[C@@]21CCN(C[C@H]2C[C@@H](NC(=O)CC3CC3(F)F)C2)[C@@H](C)C1` (some centres unmarked) [Compound 309], the IC50 was below 100 nM.

With `CCc1cc2c(s1)CCO[C@@]21CCN(C[C@H]2C[C@@H](NC(=O)c3cnn(CC(F)(F)F)c3)C2)[C@@H](C)C1` [Compound 310], the IC50 lay in the range of 100 to 500 nM.

As to `CCc1cc2c(s1)CCO[C@@]21CCN(C[C@H]2C[C@@H](NC(=O)c3cccc4c3OCCC4)C2)[C@@H](C)C1` [Compound 311], the IC50 was in the range of 100 to 500 nM.

Regarding `CCc1cc2c(s1)CCO[C@@]21CCN(C[C@H]2C[C@@H](NC(=O)C3CCCC(C)(C)C3)C2)[C@@H](C)C1` (some centres unmarked) [Compound 312], the IC50 was below 100 nM.

Regarding `CCc1cc2c(s1)CCO[C@@]21CCN(C[C@H]2C[C@@H](NC(=O)Cc3cc(C)cc(F)c3)C2)[C@@H](C)C1` [Compound 313], the IC50 is below 100 nM.

Regarding `CCc1cc2c(s1)CCO[C@@]21CCN(C[C@H]2C[C@@H](NC(=O)CC3CCC(F)(F)CC3)C2)[C@@H](C)C1` [Compound 314], the IC50 is below 100 nM.

In the case of `CCc1cc2c(s1)CCO[C@@]21CCN(C[C@H]2C[C@@H](NC(=O)C3CCOC(C)(C)C3)C2)[C@@H](C)C1` (some centres unmarked) [Compound 315], the IC50 was below 100 nM.

Take `CCc1cc2c(s1)CCO[C@@]21CCN(C[C@H]2C[C@@H](NC(=O)c3cnc4c(c3)CCC4)C2)[C@@H](C)C1` [Compound 316]: the IC50 was below 100 nM.

On to `CCc1cc2c(s1)CCO[C@@]21CCN(C[C@H]2C[C@@H](NC(=O)c3ccn(CC(C)C)n3)C2)[C@@H](C)C1` [Compound 317], for which the IC50 lay in the range of 100 to 500 nM.

Take `CCc1cc2c(s1)CCO[C@@]21CCN(C[C@H]2C[C@@H](NC(=O)C3CC(=O)C3(C)C)C2)[C@@H](C)C1` (some centres unmarked) [Compound 318]: the IC50 was below 100 nM.

Consider `CCc1cc2c(s1)CCO[C@@]21CCN(C[C@H]2C[C@@H](NC(=O)C(O)C(C)C)C2)[C@@H](C)C1` (some centres unmarked) [Compound 319], for which the IC50 is below 100 nM.

For `CCc1cc2c(s1)CCO[C@@]21CCN(C[C@H]2C[C@@H](NC(=O)c3cnc(C)s3)C2)[C@@H](C)C1` [Compound 320], the IC50 is below 100 nM.

For `CCc1cc2c(s1)CCO[C@@]21CCN(C[C@H]2C[C@@H](NC(=O)c3cn(C4CCOCC4)nn3)C2)[C@@H](C)C1` [Compound 321], the IC50 is 100 to 500 nM.
